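48-hour exposure; five concentrations; linearly interpolated endpoints. GI50 = concentration required for 50% inhibition of growth.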 Active and inactive are the calls of the source. Cut-off read from the data, not from the text of the source: active = GI50 up to about 1.1 µM and inactive = higher.
Assays:
Test in all cases: inhibition of tumour cell growth, NCI panel, 48 h
[1] = system: A549
[2] = system: ACHN
[3] = system: BT-549
[4] = system: CAKI-1
[5] = system: HCT-116
[6] = system: HOP-62
[7] = system: HOP-92
[8] = system: HT-29
[9] = system: IGROV-1
[10] = system: KM12
[11] = system: M14
[12] = system: MDA-MB-231
[13] = system: Malme-3M
[14] = system: NCI-H460
[15] = system: NCI/ADR-RES
[16] = system: OVCAR-8
[17] = system: PC-3
[18] = system: SF-539
[19] = system: SNB-19
[20] = system: SR

SMILES	GI50 [1]	GI50 [2]	GI50 [3]	GI50 [4]	GI50 [5]	GI50 [6]	GI50 [7]	GI50 [8]	GI50 [9]	GI50 [10]	GI50 [11]	GI50 [12]	GI50 [13]	GI50 [14]	GI50 [15]	GI50 [16]	GI50 [17]	GI50 [18]	GI50 [19]	GI50 [20]
COc1cccc2ccc3c(c12)C(=O)OC31CCc2c(C)cccc21 (stereo not given)	17.1 µM (inactive)	8.04 µM (inactive)	> 100 µM (inactive)	7.26 µM (inactive)	8.49 µM (inactive)	18.5 µM (inactive)	11.2 µM (inactive)	11.8 µM (inactive)	34.5 µM (inactive)	23.7 µM (inactive)	19.9 µM (inactive)	36.1 µM (inactive)	19.1 µM (inactive)	10.6 µM (inactive)	13.4 µM (inactive)	15.8 µM (inactive)	15.6 µM (inactive)	31.3 µM (inactive)	11.4 µM (inactive)	7.16 µM (inactive)
Cc1ccc(NC(=O)CC(=O)N2N=C(N(C)c3ccccc3)CC2c2ccccc2)cc1 (stereo not given)	> 100 µM (inactive)	> 100 µM (inactive)	> 100 µM (inactive)	> 100 µM (inactive)	> 100 µM (inactive)	> 100 µM (inactive)	> 100 µM (inactive)	> 100 µM (inactive)	> 100 µM (inactive)	> 100 µM (inactive)	> 100 µM (inactive)	> 100 µM (inactive)	> 100 µM (inactive)	> 100 µM (inactive)	> 100 µM (inactive)	58.7 µM (inactive)	> 100 µM (inactive)	> 100 µM (inactive)	> 100 µM (inactive)	> 100 µM (inactive)
Cc1c(O)nc(/C=C/C(=O)O)nc1C(=O)O	> 100 µM (inactive)	> 100 µM (inactive)	> 100 µM (inactive)	> 100 µM (inactive)	> 100 µM (inactive)	> 100 µM (inactive)	> 100 µM (inactive)	> 100 µM (inactive)	> 100 µM (inactive)	> 100 µM (inactive)	> 100 µM (inactive)	> 100 µM (inactive)	> 100 µM (inactive)	> 100 µM (inactive)	> 100 µM (inactive)	> 100 µM (inactive)	> 100 µM (inactive)	> 100 µM (inactive)	> 100 µM (inactive)	> 100 µM (inactive)
O=C(Cc1ccccc1F)NC1=C(Cl)C(=O)c2ccccc2C1=O	2.51 µM (inactive)	0.543 µM (active)	1.36 µM (inactive)	2.79 µM (inactive)	0.459 µM (active)	5.48 µM (inactive)	0.887 µM (active)	5.75 µM (inactive)	1.46 µM (inactive)	0.524 µM (active)	0.802 µM (active)	2.69 µM (inactive)	1.35 µM (inactive)	1.38 µM (inactive)	1.95 µM (inactive)	2.16 µM (inactive)	1.25 µM (inactive)	0.333 µM (active)	2.84 µM (inactive)	0.578 µM (active)
COc1cc2ccc(=O)oc2cc1O [SCOPOLETIN]	40.1 µM (inactive)	> 100 µM (inactive)	> 100 µM (inactive)	119 µM (inactive)	56.4 µM (inactive)	134 µM (inactive)	206 µM (inactive)	161 µM (inactive)	69.3 µM (inactive)	36.1 µM (inactive)	> 100 µM (inactive)	> 100 µM (inactive)	156 µM (inactive)	18.4 µM (inactive)	56.2 µM (inactive)	52.1 µM (inactive)	> 100 µM (inactive)	53.3 µM (inactive)	44 µM (inactive)	> 100 µM (inactive)
